This test relates to Trichoderma reesei. The experiment in a line: T. reesei cell kill, CFU count on PDA plates. Type of test: cell-based. Particulars: pH 4, 24 hours, 40° C.

The text below walks through data of US8679824B2, “Fermentation broth formulations” (Danisco US Inc., priority 2009, dated 2014).

Procedure: Sodium benzoate was added to separate T. reesei aliquots to a final concentration of 2.5 g/L sodium benzoate or 5 g/L sodium benzoate. The aliquots were then adjusted to pH 4 and incubated for 24 hours at 40° C. After 24 hours of incubation all aliquots were pH adjusted to 4.8 using 10% (w/w) sodium hydroxide. Each aliquot was then serially diluted with sterile water, spread plated onto PDA, and incubated at 25° C. The incubated PDA plates were then counted for CFU.
The aliquots were then adjusted to pH 4 and incubated for 24 hours at 40° C. After 24 hours of incubation all aliquots were pH adjusted to 4.8 using 10% (w/w) sodium hydroxide. Each aliquot was then serially diluted with sterile water, spread plated onto PDA, and incubated at 25° C. The incubated PDA plates were then counted for CFU.

In the case of `O=C([O-])c1ccccc1.[Na+]` [sodium benzoate], the “log reduction of viable cells” value (2.5 g/L sodium benzoate) is recorded as 5 log. In addition, where the note is “5 g/L sodium benzoate”, the “CFU present after incubation” value was “less than 10 CFU” and the “log reduction of viable cells” value is 7 log.
